From US20070208086A1, “UBIQUINONE ANALOGS AND METHODS OF USE” (THE REGENTS OF THE UNIVERSITY OF CALIFORNIA, priority 2006, published 2007) come the findings set out here.

This data set in a line: Determination of reduction potentials by cyclic voltametry (CV). The format is physicochemical. The source says: In one embodiment, the compound of the invention has a reduction potential, which is different from the reduction potential of CoQ10. In an exemplary embodiment, the reduction potential found for the compound of the invention is lower than the reduction potential of CoQ10. Methods for the determination of reduction potentials are known in the art and are, for example, described in A. J. Fry, Synthetic Organic Electrochemistry, 2nd Ed., Wiley-Interscience, New York, 1989. For example the reduction potential is measured against the Ag/AgNO3 redox system. “Reduction potential” can mean “first reduction potential”, in which a first electron is transferred (e.g., Q→Q ? ), or “second reduction potential”, in which a second electron is transferred (e.g., Q ? →Q^−2). Typically, “reduction potential” for the purpose of comparing compounds, means the first reduction potential. However, for certain compounds a distinction between a first and a second reduction potential cannot be measured. In these cases, the “overall” (measurable) reduction potential is used to compare reduction potential values of compounds. The reduction potentials for selected ubiquinone analogs of the invention are summarized in Example 12, below. For example, while the first reduction potential of CoQ10 in a particular assay is −1.11, the first reduction potential found for compound 9 is −1.22, which is lower than −1.11. In another example, the overall reduction potential for compound 7 is −1.44, which is lower than −1.11 for CoQ10. In an exemplary embodiment, the ratio (a/b) between the reduction potential of a compound of the invention (a) and the reduction potential of CoQ10 to (b) in a particular assay is between about 1 and about 50. In another exemplary embodiment, the ratio is between about 1 and about 40, preferably between about 1 and about 30, more preferably between about 1 and about 20, and even more preferably between about 1 and about 10. In yet another exemplary embodiment, the ratio is between about 1 and about 8 preferably between about 1 and about 6, more preferably between about 1 and about 4, and most preferably between about 1 and about 2.
The redox chemistry of a variety of purified ubiquinones of the invention was examined using cyclic voltametry (CV). Methods for the determination of reduction potentials are known in the art and are, for example, described in A. J. Fry, Synthetic Organic Electrochemistry, 2nd Ed., Wiley-Interscience, New York, 1989.
The resulting redox data (including those for CoQ10) are listed in the order of increasing first-wave potentials (Epc1) in Table 1, below. The abbreviation Epc1 and Epc2 are used to represent the values of the first and second cathodic peak potentials, respectively. The peak potentials correspond to the first and second reduction wave minima in the recorded CV graphs (see e.g., FIG. 1).
The value of the second peak potential is, typically, an approximation. Chemical side reactions coupled to the transient species generated in the first reduction may contribute to the shape of the wave, and thus the peak potential. […] Representative first and second reduction waves for analogs 1 and 23, as well as for CoQ10, are illustrated in FIG. 1, which represents an expanded portion of the recorded CV graph.

With `COC1=C(OC)C(=O)C(C/C=C(\C)CC/C=C(\C)CC/C=C(\C)CC/C=C(\C)CC/C=C(\C)CC/C=C(\C)CC/C=C(\C)CC/C=C(\C)CC/C=C(\C)CCC=C(C)C)=C(C)C1=O` [CoQ10], the “Q/Q*− (Epc1), first wave potential” value (Epc vs. Ag/AgNO3 in DMF, first cathodic peak potential) is −1.11 V. For the setting “Epc vs. Ag/AgNO3 in DMF, second cathodic peak potential, typically an approximation”, the “Q*−/Q−2 (Epc2), second wave potential” value was −1.42 V. For the same molecule, the first reduction potential was -1.11 V (FIG. 1 reduction waves) and −1.11 (in a particular assay). Moreover, for the setting “FIG. 1 reduction waves”, the second reduction potential was -1.42 V.
